# Target: T1, Cathepsin K (Homo sapiens, UniProt P43235)
# T1 sequence (P43235 whole entry): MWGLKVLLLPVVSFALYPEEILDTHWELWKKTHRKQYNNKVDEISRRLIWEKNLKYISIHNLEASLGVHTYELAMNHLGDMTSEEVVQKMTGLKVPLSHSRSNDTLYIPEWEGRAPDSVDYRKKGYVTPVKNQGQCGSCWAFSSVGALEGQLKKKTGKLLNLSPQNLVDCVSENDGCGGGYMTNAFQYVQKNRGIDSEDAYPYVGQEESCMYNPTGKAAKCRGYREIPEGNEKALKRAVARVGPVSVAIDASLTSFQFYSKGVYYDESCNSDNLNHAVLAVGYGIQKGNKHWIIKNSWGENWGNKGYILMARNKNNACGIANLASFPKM
# Experiment: In Vitro Inhibition Assay: In vitro cathepsin inhibition assay.
smiles,measurement,value
C[C@H]1CN(C(=O)[C@@H](NC(=O)c2ccc(N3CCN(C)CC3)cc2)C(C)(C)C)[C@@H]2C(=O)CO[C@@H]21,Ki,1.1 nM

# From ChEMBL document CHEMBL3638512, “Piperazine compounds” (2013)
